Assay results taken from ChEMBL document CHEMBL1138471, “Synthesis and inotropic evaluation of 1-substituted-N-(4,5-dihydro-1-methyl-[1,2,4]triazolo[4,3-a]quinolin-7-yl)piperidine-4-carboxamides” (2009).
Activity calls are given as the source filed them. The calls are words filed in the database; no cut-off is given here.

What was measured:
[1] = organism: Oryctolagus cuniculus; test: (§1) Positive inotropic activity in New Zealand White rabbit beating left atrium assessed as increase in stroke volume at 100 umol/L after 36 mins; type: functional; conditions: Cardiac atrium
[2] = as §1; type: functional, Oryctolagus cuniculus, Cardiac atrium
[3] = organism: Oryctolagus cuniculus; test: Negative inotropic activity in New Zealand White rabbit beating left atrium assessed as decrease in stroke volume at 100 umol/L after incubation for longer period; type: functional, tissue-based; conditions: Cardiac atrium
[4] = organism: Oryctolagus cuniculus; test: Positive inotropic activity in New Zealand White rabbit beating left atrium assessed as increase in stroke volume at 300 umol/L after 36 mins; type: functional, tissue-based; conditions: Cardiac atrium
[5] = organism: Oryctolagus cuniculus; test: Positive inotropic activity in New Zealand White rabbit beating left atrium assessed as increase in stroke volume after 36 mins; type: functional, tissue-based; conditions: Cardiac atrium

Compound	Activity [1]	Activity [2] [%]	also measured
COc1cc(CN2CCC(C(=O)Nc3ccc4c(c3)CCc3nnc(C)n3-4)CC2)ccc1OCc1cccc([N+](=O)[O-])c1	inactive	–	–
Cc1nnc2n1-c1ccc(NC(=O)C3CCN(Cc4ccc(Cl)cc4)CC3)cc1CC2	inactive	–	–
COc1cc(CN2CCC(C(=O)Nc3ccc4c(c3)CCc3nnc(C)n3-4)CC2)ccc1OCc1cccc(F)c1	–	0.18	–
Cc1nnc2n1-c1ccc(NC(=O)C3CCN(Cc4ccccc4[N+](=O)[O-])CC3)cc1CC2	inactive	–	–
COc1ccc(COc2ccc(CN3CCC(C(=O)Nc4ccc5c(c4)CCc4nnc(C)n4-5)CC3)cc2OC)cc1	–	6.08	Activity [3]: Active
COc1cc(CN2CCC(C(=O)Nc3ccc4c(c3)CCc3nnc(C)n3-4)CC2)ccc1OCc1ccc(F)cc1	inactive	–	–
Cc1nnc2n1-c1ccc(NC(=O)C3CCN(Cc4cccc([N+](=O)[O-])c4)CC3)cc1CC2	–	8.14	–
Cc1nnc2n1-c1ccc(NC(=O)C3CCN(Cc4cccc(Cl)c4)CC3)cc1CC2	–	9.97	–
COc1ccc(COc2ccc(CN3CCC(C(=O)Nc4ccc5c(c4)CCc4nnc(C)n4-5)CC3)cc2OC)cc1OC	inactive	–	–
Cc1nnc2n1-c1ccc(NC(=O)C3CCN(Cc4ccc(F)cc4)CC3)cc1CC2	inactive	–	–
Cc1nnc2n1-c1ccc(NC(=O)C3CCN(Cc4ccccc4Br)CC3)cc1CC2	–	1.67	–
Cc1nnc2n1-c1ccc(NC(=O)C3CCN(Cc4c(Cl)cccc4Cl)CC3)cc1CC2	inactive	–	–
Cc1ccc(CN2CCC(C(=O)Nc3ccc4c(c3)CCc3nnc(C)n3-4)CC2)cc1	inactive	–	–
Cc1nnc2n1-c1ccc(NC(=O)C3CCN(Cc4ccccc4Cl)CC3)cc1CC2	–	0.4	Activity [3]: Active
Cc1nnc2n1-c1ccc(NC(=O)C3CCN(Cc4ccccc4)CC3)cc1CC2	inactive	–	–
COc1cc(CN2CCC(C(=O)Nc3ccc4c(c3)CCc3nnc(C)n3-4)CC2)ccc1OCc1ccc(Cl)cc1Cl	–	2.78	–

Compound	Activity [1]	Activity [2] [%]	also measured
COc1cc(CN2CCC(C(=O)Nc3ccc4c(c3)CCc3nnc(C)n3-4)CC2)ccc1OCc1c(Cl)cccc1Cl	inactive	–	–
COc1ccc(CN2CCC(C(=O)Nc3ccc4c(c3)CCc3nnc(C)n3-4)CC2)cc1	inactive	–	–
COc1cc(CN2CCC(C(=O)Nc3ccc4c(c3)CCc3nnc(C)n3-4)CC2)ccc1OCc1ccccc1F	–	7.41	Activity [4]: inactive; Activity [5]: Dose-dependent effect
Cc1nnc2n1-c1ccc(NC(=O)C3CCN(Cc4ccc5c(c4)OCO5)CC3)cc1CC2	–	2.96	–
COc1cc(CN2CCC(C(=O)Nc3ccc4c(c3)CCc3nnc(C)n3-4)CC2)ccc1OCc1ccc(C)cc1	inactive	–	–
COc1cc(CN2CCC(C(=O)Nc3ccc4c(c3)CCc3nnc(C)n3-4)CC2)ccc1OCc1cccc(Cl)c1	–	5.56	Activity [3]: Active
COc1cc(CN2CCC(C(=O)Nc3ccc4c(c3)CCc3nnc(C)n3-4)CC2)ccc1OCc1ccc(Cl)cc1	–	5.13	Activity [3]: Active
COc1cc(CN2CCC(C(=O)Nc3ccc4c(c3)CCc3nnc(C)n3-4)CC2)ccc1OCc1ccccc1Cl	inactive	–	–
Cc1nnc2n1-c1ccc(NC(=O)C3CCN(Cc4cccc(F)c4)CC3)cc1CC2	–	1.56	–
COc1ccc(CN2CCC(C(=O)Nc3ccc4c(c3)CCc3nnc(C)n3-4)CC2)cc1OC	–	1.87	–
Cc1nnc2n1-c1ccc(NC(=O)C3CCN(Cc4ccccc4F)CC3)cc1CC2	–	11.92	Activity [4]: inactive; Activity [5]: Dose-dependent effect
Cc1nnc2n1-c1ccc(NC(=O)C3CCN(Cc4ccc(Cl)cc4Cl)CC3)cc1CC2	–	7.83	Activity [3]: Active
Cc1[nH]c(=O)c(C#N)cc1-c1ccncc1 [MILRINONE]	–	6.36	–
COc1cc(CN2CCC(C(=O)Nc3ccc4c(c3)CCc3nnc(C)n3-4)CC2)ccc1OCc1ccccc1[N+](=O)[O-]	inactive	–	–
COc1cc(CN2CCC(C(=O)Nc3ccc4c(c3)CCc3nnc(C)n3-4)CC2)ccc1OCc1ccccc1	–	5.19	–
COc1cc(CN2CCC(C(=O)Nc3ccc4c(c3)CCc3nnc(C)n3-4)CC2)ccc1OCc1ccccc1Br	inactive	–	–
